The values that follow come from patent US20140199714A1, “METHOD FOR DETECTING CANCER CELLS METASTASIZING INTO SENTINEL LYMPH NODE” (SHINSHU UNIVERSITY, priority 2008, published 2014).

Common to all, as to type: cell-based
One assay relates to E-selectin on human LECs. As to the kind of experiment: Immunohistochemical expression of E-selectin on cultured human LECs. The procedure: (§1) Using an indirect immunohistochemical technique, the inventors examined the effects of the supernatants of culture medium of two kinds of carcinoma cells, MDA-MB-231 and MCF-7, on the expression of adhesion molecules such as E-selectin, P-selectin, vascular cell adhesion molecule (VCAM)-1, and intercellular adhesion molecule (ICAM)-1 on the human LECs. The carcinoma cells were plated in DMEM/F12 with 10% FBS, which was replaced the following day with DMEM/F12 with 3% FBS, and then collected after overnight culture. The collected solution was centrifuged at 2,000 rpm for 5 min. at 4° C. To examine the effects of the supernatants on the expression of the adhesion molecules on the human LECs, 1 mL of each collected solution was added to starvation culture medium, EBM-2 with 3% FBS of the human LECs, and then stimulated for 48 hrs. on the cells. In some experiments, the supernatant solutions at different concentrations (1/100 or 1/10,000 dilution) were constructed with appropriate volumes of DMEM/F12 with 3% FBS.
(§2) Indirect immunohistochemical studies were performed on the cultured LECs seeded or glass slides coated with type I collagen, and then the cells were fixed with 3.3% formalin in phosphate-buffered saline solution (PBS), for 20 min. at room temperature. The cells were washed three times with PBS, and then incubated overnight at 4° C. with primary polyclonal human antisera to E-selectin/CD62E (dilution 10 μg/mL, available from R&D Systems, US), P-selectin/CD62P (dilution 10 μg/mL, available from R&D Systems, US), VCAM-1/CD106 (dilution 10 μg/mL, available from R&D Systems, US), and ICAM-1/CD54 (dilution 10 μg/mL, available from R&D Systems, US).
(§3) Before primary staining, the cultured cells were permeabilized with 0.1% TRITON-X. After washing three times in PBS, the cells were incubated for 1 hr. at room temperature with 1:100 diluted ALEXA FLUOR 488 donkey anti-mouse IgG (available from Invitrogen, US). The nuclei of cultured cells were counter-stained and mounted with PROLONG GOLD antifade reagent with 4′-6-diamidine-2-phenylindole (DAPI) (available from Molecular Probes, US), examined by a fluorescent microscope (Leica, Switzerland), and photographed.
(§4) Immunohistochemistry was performed on the cultured human LECs or the fresh-frozen SLNs isolated from the breast cancer patients. In brief, the cultured LECs were fixed with 10% formalin in the phosphate-buffered saline solution (PBS) at room temperature. The cells were incubated for 4 hrs. at room temperature with primary polyclonal human antisera platelet-endothelial cell adhesion molecule (PECAM)-1 (dilution 1:100, available from BD Biosciences, US), lymphatic vessel endothelial hyaluronan receptor (LYVE)-1 (dilution 1:50, available from RELIATech, Germany), PROX-1 (dilution 1:50, available from AngioBio, US), podoplanin (dilution 1:50, available from AngioBio, US), vascular endothelium growth factor receptor 3 (VEGF R3) (dilution 1:50, available from Santa Cruz, US), E-selectin/CD62E (dilution 1:50, available from R&D systems, US), P-selectin/CD62P (dilution 1:50, available from R&D systems, US), vascular cell adhesion molecule (VCAM)-1/CD106 (dilution 1:50, available from R&D systems, US), and intercellular adhesion molecule (ICAM)-1/CD54 (dilution 1:50, available from R&D systems, US). Before the staining, permeabilization of the cultured cells with 0.1% TRITON-X was performed. Then, the cells were stained using the following antibodies: ALEXA FLUOR 488 chicken anti-rabbit IgG or ALEXA FLUOR 488 donkey anti-mouse IgG (available from Invitrogen, US). The nuclei of the cultured cells were counter-stained and mounted with ProLong Gold antifade reagent with 4′-6-diamidine-2-phenylindole (DAPI) (available from Molecular Probes, US). The cultured cells were examined by a fluorescent microscope (available from Leica, Germany) and photographed. […]

The test system of the next assay is VCAM-1 on human LECs. As to the kind of experiment: Immunohistochemical expression of VCAM-1 on cultured human LECs. The procedure:
as §1, §2, §3, §4

In assay [1] the test system is attachment of MCF-7 carcinoma cells to human LECs. In words: In vitro human LECs attachment assay (CCL2), MCF-7. Conditions: 18 hrs.-stimulation of 10 ng/mL CCL2 vs negative control with DMEM/F12; p<0.01. How it is done: (§5) The human LECs were plated to form a monolayer on type I collagen-coated 35 mm plates and incubated to confluence in 5% O2, 5% CO2, and 90% N2 at 37° C. The LECs were kept in serum-starved medium containing EBM-2 with 3% FBS. Selected plates were treated with 10 ng/mL CCL2 for 18 hrs. In some experiments, the plates were stimulated by the serum-starved medium pretreated with neutralization of 10 ng/mL CCL2 with 1.0 μg/mL CCL2 specific antibody.
(§6) In some experiments, the plates were also treated with anti-human ICAM-1 antibody (available from R&D systems, US) for 30 min. after the 18 hrs. treatment with 10 ng/mL CCL2.
(§7) The two kinds of the breast carcinoma cells such as MDA-MB-231 and MCF-7 stained with PKH26 fluorescent dye (available from SIGMA, US) were then plated at 1×10^5 cells per plate and incubated for 30 min. at 37° C. Unbound cells were removed by aspiration, and the plates were washed with EBM-2 three times. The attachment of the carcinoma cells was quantified by counting the number of cells under ×100 magnification using a Leica microscope.

For assay [2], the system named is attachment of MDA-MB-231 carcinoma cells to human LECs. In words: In vitro human LECs attachment assay (CCL2), MDA-MB-231. The conditions noted are these: 18 hrs.-stimulation of 10 ng/mL CCL2 vs negative control with DMEM/F12; p<0.01. The procedure:
as §5, §6, §7

For assay [3], the system named is ICAM-1 protein in human LECs. In words: Western blot analysis of ICAM-1 protein in human LECs. Conditions: 18 hrs.-stimulation of 10 ng/mL CCL2. How it is done: Western blot analysis was performed to quantitatively evaluate the CCL2-mediated ICAM-1 expression on the cultured human LECs. The cells were dissolved in M-PER (Mammalian Protein Extraction Reagent available from Thermo Fisher Scientific Inc., US) and centrifuged at 14,000 r.p.m. for 10 min. A 15 μg sample of the total cell lysate was resolved in SDS sample buffer for sodium dodecyl sulfate-polyacrylamide gel electrophoresis (SDS-PAGE) and transferred to an polyvinylidene difluoride (PVDF) membrane (available from Atto Corporation, Japan), where it was incubated for 45 min The membrane was probed with the anti-ICAM-1 antiserum (dilution 1:1000, available from Cell Signaling Technology Inc., US) and then incubated with anti-rabbit immunoglobulin G (IgG) horseradish peroxidase conjugated antibody. The same membrane was reprobed with monoclonal anti-actin antibody (available from Santa Cruz Biotechnology Inc., US) and then visualized with an ECL-Western blotting detection system (available from Amersham Bioscience Inc., UK).
Background: A western blot detects proteins with antibodies after separation by electrophoresis.

A further assay deals with ICAM-1 on human LECs. As to the kind of experiment: Immunohistochemical expression of ICAM-1 on cultured human LECs.
Setting [4] is: 4 hrs-stimulation of 10 ng/mL CCL2.
[5] abbreviates: 18 hrs.-stimulation with 10 ng/mL chemokine.

Turning to CCL2: chemokine CCL2, in the assay on E-selectin on human LECs (10 ng/mL CCL2, stimulation time increased to 18 hrs. and 48 hrs.), the “immunoreaction of anti-E-selectin” value is given as “markedly decreased”. The “staining with E-selectin antiserum on LECs” value with E-selectin on human LECs (setting [4]) is “Slight staining”. Further, the “expression of E-selectin on human LECs” value in the assay with E-selectin on human LECs (setting [5]) was “Little or no expression”. For the same substance, the entries for the “expression of VCAM-1 on human LECs” value with VCAM-1 on human LECs (setting [4]) and in the assay on VCAM-1 on human LECs (setting [5]) were “no or little expression” and “Little or no expression”, respectively. The “in vitro attachment of MCF-7 to human LECs” value in assay [1] is “significant increase”. Besides, the “in vitro attachment of MDA-MB-231 to human LECs” value in assay [2] is reported as “significant increase”. Besides, the “expression of ICAM-1 protein” value in assay [3] is recorded as “significant expression”. For the same substance, the “intensity of the immunoreactivity for ICAM-1” value in the assay with ICAM-1 on human LECs (10 ng/mL CCL2, stimulation time of 18 hrs. only) is reported as “significantly increased”. Besides, the “contrast-density of ICAM-1 staining (mean density/pixel)” value in the assay on ICAM-1 on human LECs (10 ng/mL CCL2 vs negative control, p<0.01, n=5) is recorded as “increases significantly”. Besides, the “expression of ICAM-1 on human LECs” value is given as “marked expression” in the assay on ICAM-1 on human LECs (setting [4]); “marked expression” in the assay on ICAM-1 on human LECs (setting [5]); “slight, but significant, expression” in the assay with ICAM-1 on human LECs (18 hrs.-stimulation, 10 pg/mL CCL2); “marked expression” in the assay on ICAM-1 on human LECs (18 hrs.-stimulation, 1 ng/mL or 10 ng/mL of CCL2).
